Test results taken from ChEMBL document CHEMBL1201862, “PubChem BioAssay data set” (2004).
Several values for one entry are separate records, joined by “and”; a condition that tells them apart may be missing. Identical values can stand only once. Activity calls are given as the source filed them.

How the values were obtained:
[1] = molecular target: T1, Heat shock factor protein 1 (Mus musculus, UniProt P38532); test: inhibition of MG132-induced HSE-luciferase signal, confirmation, cell-based, NIH3T3, luminescence, dose retest (AID 2382); assay type: functional;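 further: NIH3T3 fibroblasts with HSF1-driven luciferase reporter stressed by proteasome inhibitor MG132; luminescence from HSF1-driven luciferase expression after 8 hours of MG132 stress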
T1 sequence (P38532 whole entry): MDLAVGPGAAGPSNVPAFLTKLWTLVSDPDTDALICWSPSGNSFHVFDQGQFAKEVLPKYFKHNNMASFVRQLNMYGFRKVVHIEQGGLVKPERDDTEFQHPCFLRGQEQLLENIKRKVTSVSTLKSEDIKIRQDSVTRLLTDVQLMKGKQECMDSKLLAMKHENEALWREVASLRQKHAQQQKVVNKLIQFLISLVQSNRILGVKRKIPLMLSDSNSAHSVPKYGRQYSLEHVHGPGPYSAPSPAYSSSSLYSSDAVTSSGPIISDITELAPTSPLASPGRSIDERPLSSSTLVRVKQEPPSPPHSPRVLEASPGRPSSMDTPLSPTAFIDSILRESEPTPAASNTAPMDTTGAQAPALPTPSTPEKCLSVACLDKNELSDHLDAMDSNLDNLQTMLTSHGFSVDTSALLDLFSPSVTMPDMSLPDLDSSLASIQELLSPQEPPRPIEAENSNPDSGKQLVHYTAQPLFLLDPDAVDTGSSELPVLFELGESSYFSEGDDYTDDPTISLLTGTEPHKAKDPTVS

Cytochrome P450 2C9 = Cytochrome P450 2C9 (Homo sapiens, UniProt P11712)
Sequence of Cytochrome P450 2C9 (P11712 whole entry): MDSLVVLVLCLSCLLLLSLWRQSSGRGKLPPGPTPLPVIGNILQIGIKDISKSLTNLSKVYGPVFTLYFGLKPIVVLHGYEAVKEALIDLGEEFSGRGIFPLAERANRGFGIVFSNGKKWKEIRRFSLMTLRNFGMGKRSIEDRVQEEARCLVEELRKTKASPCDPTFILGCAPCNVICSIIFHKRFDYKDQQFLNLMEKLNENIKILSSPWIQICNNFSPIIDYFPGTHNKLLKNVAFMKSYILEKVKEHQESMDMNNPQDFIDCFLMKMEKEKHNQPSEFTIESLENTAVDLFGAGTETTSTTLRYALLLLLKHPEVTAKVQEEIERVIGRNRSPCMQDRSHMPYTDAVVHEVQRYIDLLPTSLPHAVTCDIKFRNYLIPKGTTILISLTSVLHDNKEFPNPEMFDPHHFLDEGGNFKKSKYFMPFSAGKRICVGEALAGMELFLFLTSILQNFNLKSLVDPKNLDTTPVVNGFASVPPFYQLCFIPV

Cytochrome P450 2D6 = Cytochrome P450 2D6 (Homo sapiens, UniProt P10635);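 further: CYP2D6 member of a cytochrome P450 panel assay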
Sequence of Cytochrome P450 2D6 (P10635 whole entry): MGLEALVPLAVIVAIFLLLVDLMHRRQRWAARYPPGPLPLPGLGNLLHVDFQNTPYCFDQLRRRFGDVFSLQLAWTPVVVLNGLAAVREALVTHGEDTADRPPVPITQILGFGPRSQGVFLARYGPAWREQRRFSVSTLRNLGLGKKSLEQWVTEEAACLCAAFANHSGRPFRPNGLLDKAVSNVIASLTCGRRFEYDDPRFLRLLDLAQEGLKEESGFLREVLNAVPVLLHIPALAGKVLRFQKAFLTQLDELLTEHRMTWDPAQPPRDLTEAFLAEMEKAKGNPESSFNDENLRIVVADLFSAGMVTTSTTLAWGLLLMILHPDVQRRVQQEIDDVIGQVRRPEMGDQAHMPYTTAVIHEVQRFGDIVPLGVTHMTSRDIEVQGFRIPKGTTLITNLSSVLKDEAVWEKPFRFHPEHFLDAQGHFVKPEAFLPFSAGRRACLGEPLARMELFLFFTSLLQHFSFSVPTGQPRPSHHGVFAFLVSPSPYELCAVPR

Protein skinhead-1 = molecular target: T2, Protein skinhead-1 (Caenorhabditis elegans, UniProt P34707); assay type: functional
T2 sequence (P34707 whole entry): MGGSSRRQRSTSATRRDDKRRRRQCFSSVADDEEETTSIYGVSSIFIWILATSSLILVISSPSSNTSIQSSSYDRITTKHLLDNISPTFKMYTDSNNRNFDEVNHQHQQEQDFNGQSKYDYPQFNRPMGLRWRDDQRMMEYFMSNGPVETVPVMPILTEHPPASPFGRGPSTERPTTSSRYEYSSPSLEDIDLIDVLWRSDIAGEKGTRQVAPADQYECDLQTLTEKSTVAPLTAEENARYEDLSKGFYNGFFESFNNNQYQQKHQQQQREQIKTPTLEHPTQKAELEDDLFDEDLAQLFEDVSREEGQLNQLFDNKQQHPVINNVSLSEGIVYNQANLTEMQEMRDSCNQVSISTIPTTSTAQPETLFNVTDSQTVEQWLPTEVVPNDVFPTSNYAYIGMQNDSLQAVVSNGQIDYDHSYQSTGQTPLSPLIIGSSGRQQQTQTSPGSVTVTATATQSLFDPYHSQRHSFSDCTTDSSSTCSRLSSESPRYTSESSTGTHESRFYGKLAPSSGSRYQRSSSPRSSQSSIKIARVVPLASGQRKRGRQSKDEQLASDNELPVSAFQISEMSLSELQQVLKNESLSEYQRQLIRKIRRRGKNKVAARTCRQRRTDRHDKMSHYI

Cytochrome P450 1A2 = molecular target: T3, Cytochrome P450 1A2 (Homo sapiens, UniProt P05177);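 further: PubChem cytochrome P450 panel assay, CYP1A2 panel member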
T3 sequence (P05177 whole entry): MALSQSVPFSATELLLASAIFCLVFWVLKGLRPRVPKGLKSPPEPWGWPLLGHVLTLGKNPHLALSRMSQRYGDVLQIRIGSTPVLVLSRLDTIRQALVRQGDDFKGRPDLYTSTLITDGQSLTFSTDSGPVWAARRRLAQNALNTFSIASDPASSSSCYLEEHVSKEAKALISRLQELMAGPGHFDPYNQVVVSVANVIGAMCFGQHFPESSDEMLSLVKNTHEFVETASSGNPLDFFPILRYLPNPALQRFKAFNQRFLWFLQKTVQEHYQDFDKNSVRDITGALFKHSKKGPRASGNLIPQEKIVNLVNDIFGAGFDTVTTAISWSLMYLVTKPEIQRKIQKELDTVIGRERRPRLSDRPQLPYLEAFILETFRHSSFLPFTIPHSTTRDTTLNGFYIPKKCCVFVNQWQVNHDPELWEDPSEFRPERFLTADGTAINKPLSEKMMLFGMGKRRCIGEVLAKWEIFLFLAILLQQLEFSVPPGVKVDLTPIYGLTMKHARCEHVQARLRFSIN

Cytochrome P450 2C19 = Cytochrome P450 2C19 (Homo sapiens, UniProt P33261); test: Cytochrome panel assay with activity outcomes. Panel member name: p450-cyp2c19 Compounds with AC50 equal or less than 10 uM are considered active; assay type: functional; conditions: read-out: AC50
Sequence of Cytochrome P450 2C19 (P33261 whole entry): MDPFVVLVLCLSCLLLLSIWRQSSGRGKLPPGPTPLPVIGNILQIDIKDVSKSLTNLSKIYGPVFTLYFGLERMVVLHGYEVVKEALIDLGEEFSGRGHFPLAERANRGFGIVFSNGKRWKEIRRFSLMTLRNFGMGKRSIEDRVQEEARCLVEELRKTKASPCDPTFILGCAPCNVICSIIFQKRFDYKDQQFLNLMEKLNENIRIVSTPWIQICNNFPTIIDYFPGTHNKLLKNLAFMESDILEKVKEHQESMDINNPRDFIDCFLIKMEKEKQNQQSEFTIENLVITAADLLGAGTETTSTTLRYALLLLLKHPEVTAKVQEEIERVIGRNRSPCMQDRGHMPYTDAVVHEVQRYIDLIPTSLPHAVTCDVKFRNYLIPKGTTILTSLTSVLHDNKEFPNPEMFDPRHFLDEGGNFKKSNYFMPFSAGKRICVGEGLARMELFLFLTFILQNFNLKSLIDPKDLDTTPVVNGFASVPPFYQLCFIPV

[2] = molecular target: T1, Heat shock factor protein 1; test: HSF1 potentiators in luciferase reporter cells, confirmation, cell-based, NIH3T3, luminescence, dose retest (AID 435004); assay type: functional;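 further: stress induced by proteasome inhibitor MG132 added 30 min after compound; luciferase reporter driven by HSF1 response element in NIH3T3 cells; actives raise luminescence as potentiators of the MG132 stress response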
[3] = molecular target: T4, Short transient receptor potential channel 4 (Mus musculus, UniProt Q9QUQ5); test: mouse TRPC4 channel inhibitors, dose response, cell-based, HEK293 TRPC4/mu-opioid, Fluo-4 calcium (AID 434942); assay type: functional;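 further: potency of inhibitors blocking the TRPC4 calcium response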
T4 sequence (Q9QUQ5 whole entry): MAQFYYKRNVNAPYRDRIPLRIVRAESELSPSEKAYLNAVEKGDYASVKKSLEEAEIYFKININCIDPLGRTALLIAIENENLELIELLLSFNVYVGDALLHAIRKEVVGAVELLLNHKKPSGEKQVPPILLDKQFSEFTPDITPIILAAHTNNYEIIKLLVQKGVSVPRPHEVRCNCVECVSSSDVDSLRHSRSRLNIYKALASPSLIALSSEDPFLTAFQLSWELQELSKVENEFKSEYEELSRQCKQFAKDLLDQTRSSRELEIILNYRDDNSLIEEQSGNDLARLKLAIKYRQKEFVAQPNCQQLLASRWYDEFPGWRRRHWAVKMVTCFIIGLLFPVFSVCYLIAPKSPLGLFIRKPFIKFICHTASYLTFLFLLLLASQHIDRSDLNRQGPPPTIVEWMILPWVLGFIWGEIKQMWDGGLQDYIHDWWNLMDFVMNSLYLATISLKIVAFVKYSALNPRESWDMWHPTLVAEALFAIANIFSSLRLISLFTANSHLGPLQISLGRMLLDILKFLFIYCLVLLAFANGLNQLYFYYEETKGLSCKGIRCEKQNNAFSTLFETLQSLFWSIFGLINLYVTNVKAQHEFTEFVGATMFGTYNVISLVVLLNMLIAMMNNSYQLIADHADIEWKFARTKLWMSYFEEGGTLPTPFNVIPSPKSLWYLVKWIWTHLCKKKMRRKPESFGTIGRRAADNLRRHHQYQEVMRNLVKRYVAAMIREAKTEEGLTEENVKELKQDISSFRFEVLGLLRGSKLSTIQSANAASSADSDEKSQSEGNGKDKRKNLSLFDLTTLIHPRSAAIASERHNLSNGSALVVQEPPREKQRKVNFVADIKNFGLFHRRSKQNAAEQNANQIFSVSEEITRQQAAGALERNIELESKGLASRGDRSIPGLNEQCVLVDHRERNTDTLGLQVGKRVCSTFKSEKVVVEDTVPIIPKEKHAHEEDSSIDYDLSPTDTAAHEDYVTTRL

[4] = cytotoxicity toward NIH3T3 fibroblasts, dose response, counter-screen, cell-based, ATP luminescence, mouse fibroblasts (AID 2010); assay type: functional;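 further: cells exposed to compound for about 90 hours before reading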
[5] = inhibitors of intracellular T. cruzi replication, confirmation, NIH3T3 host cells, beta-gal luminescence (AID 2044); assay type: functional, cell-based;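 further: intracellular parasites grown in NIH/3T3 mouse fibroblasts as host cells; luminescent beta-galactosidase reporter signal from transgenic T. cruzi replicating inside host cells; inhibitors lower the luminescence signal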
Cytochrome P450 3A4 = Cytochrome P450 3A4 (Homo sapiens, UniProt P08684);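 further: CYP3A4 tested as one member of a cytochrome P450 panel screen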
Sequence of Cytochrome P450 3A4 (P08684 whole entry): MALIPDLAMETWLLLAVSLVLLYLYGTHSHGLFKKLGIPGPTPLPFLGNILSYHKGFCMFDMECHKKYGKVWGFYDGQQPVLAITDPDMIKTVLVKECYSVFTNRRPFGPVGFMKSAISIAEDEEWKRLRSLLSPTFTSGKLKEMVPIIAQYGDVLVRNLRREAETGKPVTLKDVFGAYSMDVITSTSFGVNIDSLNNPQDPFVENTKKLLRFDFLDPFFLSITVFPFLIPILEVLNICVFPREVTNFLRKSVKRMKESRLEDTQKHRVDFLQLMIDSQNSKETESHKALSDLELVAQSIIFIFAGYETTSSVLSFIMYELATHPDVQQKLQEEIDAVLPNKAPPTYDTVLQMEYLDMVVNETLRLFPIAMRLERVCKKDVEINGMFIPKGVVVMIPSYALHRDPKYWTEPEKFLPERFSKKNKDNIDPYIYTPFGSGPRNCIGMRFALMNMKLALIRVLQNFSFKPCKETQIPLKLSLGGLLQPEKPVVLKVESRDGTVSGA

## Cc1ccc(F)cc1N=C(S)NCCc1ccccc1
[1]
  EC50: > 195 µM (not active)

## CCOc1ccc(N2C(=O)c3cccnc3C2=O)cc1
Cytochrome P450 2C9
  AC50: 7.94 µM (inconclusive)
Cytochrome P450 2D6
  AC50: 0.178 µM (inconclusive)

## CCCN1C2CCCC1CC(NC(=O)c1ccc(F)cc1)C2 (centres undefined)
Protein skinhead-1
  IC50: > 100 µM (inactive)

## COc1ccc(O)c(-c2c(C)n[nH]c2-c2ccc(Cl)cc2)c1
[1]
  EC50: > 195 µM (not active)

## CC(NS(=O)(=O)c1ccc(OCC(=O)N2CCOCC2)c(Cl)c1)c1ccccc1 (centres undefined)
Protein skinhead-1
  IC50: > 100 µM (inactive)

## COc1ccc2[nH]cc(CCNc3cc(-c4ccccc4C(F)(F)F)ncn3)c2c1
Cytochrome P450 2C9
  AC50: 1 µM (inconclusive)
Cytochrome P450 2D6
  AC50: 20 µM (inconclusive)

## CCOC(=O)C1=C(CSc2nc(-c3ccccc3)ccc2C#N)OC(N)=C(C#N)C1c1ccccc1 (centres undefined)
Protein skinhead-1
  IC50: > 100 µM (inactive)

## CN1CC[C@]2(C)c3cc(O)ccc3N(C)[C@@H]12
Cytochrome P450 1A2
  AC50: 15.8 µM (inconclusive) and 31.6 µM (inconclusive)
Cytochrome P450 2C9
  AC50: 12.6 µM (inconclusive)
Cytochrome P450 2D6
  AC50: 31.6 µM (inconclusive) and 12.6 µM (inconclusive)

## CN(C)c1nccc(N(Cc2ccccc2)Cc2ccccc2)c1C#N
Cytochrome P450 2D6
  AC50: 10 µM (inconclusive)

## CCC1CCc2c(c3ccccc3[nH]c2=O)O1 (centres undefined)
Cytochrome P450 2D6
  AC50: 39.8 µM (inconclusive)
Cytochrome P450 2C19
  AC50: 17.8 µM (inconclusive)

## S=C(N/N=C1\CCc2ccccc21)NC1CCCCC1
[1]
  EC50: 87.7 µM (active)

## O=C(Nc1ccccc1)c1c[nH]cn1
Protein skinhead-1
  IC50: > 100 µM (inactive)

## COc1ccc2c(c1)OC/C(=C/c1cccs1)C2=O
Protein skinhead-1
  IC50: 28.7 µM (active)

## O=C(c1ccncc1)N1CCC2(CC1)CN(Cc1cc(C(F)(F)F)cc(C(F)(F)F)c1)C2
Cytochrome P450 2D6
  AC50: 31.6 µM (inconclusive)

## O=C(CNC(=O)c1cccnc1)N/N=C/c1cc(Br)c(O)c(Br)c1
[1]
  EC50: > 195 µM (not active)

## O=c1c2ccccc2nc(-c2ccc(Br)cc2)n1Cc1ccccc1
Cytochrome P450 2D6
  AC50: 25.1 µM (inconclusive)

## CN(C)CCN1C(=O)C2C(C(=O)Nc3cc(Cl)cc(Cl)c3)C3C=CC2(O3)C1C(=O)NC1CCCCC1 (centres undefined)
[2]
  EC50: > 260 µM (inactive)
[3]
  EC50: 6.68 µM (active)

## CC(=O)Nc1ccc(-c2nnc(SCC(=O)c3ccc4c(c3)Cc3ccccc3-4)n2C)cc1
Cytochrome P450 2D6
  AC50: 14.1 µM (inconclusive)
Cytochrome P450 2C19
  AC50: 6.31 µM (inconclusive)

## COCCn1c(SCc2ccc(OC)c(F)c2)nc2ccccc2c1=O
[4]
  EC50: 31.8 µM (active)
[3]
  EC50: 2.99 µM (active)
[5]
  EC50: 2.24 µM (active)

## Fc1ccc(Cn2nnc(-c3ccc(CN4CCOCC4)cc3)n2)cc1
Protein skinhead-1
  IC50: 6.09 µM (active)

## COC(=O)c1cc(S(=O)(=O)NCCc2ccccc2)c[nH]1
[1]
  EC50: > 195 µM (not active)

## O=C(CC(c1ccccc1)c1ccccc1)NCC1CCCO1 (centres undefined)
Cytochrome P450 2D6
  AC50: 11.2 µM (inconclusive)
Cytochrome P450 3A4
  AC50: 22.4 µM (inconclusive)

## Cc1ccc(S(=O)(=O)Nc2nc(C)c(NC(=O)Nc3ccc(Cl)cc3Cl)s2)cc1
Cytochrome P450 2D6
  AC50: 28.2 µM (inconclusive)

## COc1ccc(NC(=O)C2Cc3ccccc3C(=O)O2)cc1 (centres undefined)
[1]
  EC50: > 195 µM (not active)

## O=C(Nc1ccc2c(c1)CN(C(=O)Nc1ccc(F)cc1)CC2)c1ccccn1
Protein skinhead-1
  IC50: > 100 µM (inactive)

## CN(/C(=N\S(=O)(=O)c1ccccc1)C(F)(F)F)c1ccccc1
[1]
  EC50: > 195 µM (not active)

## COc1ccc(-n2c(=O)c(-c3cc(F)cc(F)c3)nc3cnc(N4CCOCC4)nc32)cc1
Cytochrome P450 1A2
  AC50: 15.8 µM (inconclusive)
Cytochrome P450 2D6
  AC50: 20 µM (inconclusive)
Cytochrome P450 3A4
  AC50: 15.8 µM (inconclusive)

## Fc1ccccc1N=C(S)NN(Cc1ccccc1)c1ccccc1
Protein skinhead-1
  IC50: > 100 µM (inactive)

## O=c1cc(N2CCCCC2)c(-c2ccccc2)nn1Cc1ccccc1Cl
Cytochrome P450 2D6
  AC50: 28.2 µM (inconclusive)

## COc1cccc(NC(=O)N2CCCC2C(=O)NC(C)C)c1 (centres undefined)
[1]
  EC50: 152 µM (active)

## CCC(C)(C)NC(=O)C(c1cccn1C)N(C(=O)Cn1nnc2ccccc21)c1ccc(OC)cc1OC (centres undefined)
Protein skinhead-1
  IC50: > 100 µM (inactive)

## CNC(=O)NC(=S)NC(=O)c1ccccc1Cl
[1]
  EC50: > 195 µM (not active)
